The values that follow come from US4945162A, “Novel radioactive propyl 2-iodospiroperidol and processes for the preparation thereof” (Sumitomo Chemical Company, Limited, priority 1986, dated 1990).

In this test the target is T1, Dopamine Receptors (Rat Striatal Membranes) (Rattus norvegicus, UniProt P61169).
T1 construct: For ^3 H-SP to Rat Striatal Membranes; from tissue; host or cells: rat striatum (membranes)
The test can be described thus: Inhibition of specific ^3 H-SP binding (dopamine receptor binding affinity) to rat striatal membranes. The settings on record: for Ki / IC50: 23° C., 30 minutes, ketanserine present; for IC50: nonspecific binding with (+)butaclamol, triplicate; for Relative Potency: relative to 2-ISP = 100. The procedure: PISP, 2-ISP and MISP were screened as for the dopamine receptor binding affinity according to the method reported by Hamblin [Biochem. Pharmacol. 33, 877-887 (1984)]. An aliquot of striatal membrane preparations was incubated at 23° C. for 30 minutes with each of the unlabeled competing drugs (PISP, 2-ISP and MISP) in different concentration, ketanserine and ^3 H-spiroperidol (hereinafter referred to as ^3 H-SP). The incubation was terminated by adding ice-cold TEAN buffer followed by a rapid filtration through a Whatman GF/B filter. The bound ^3 H-SP retained on the filter was extracted with ACS II (Amersham) and counted. All incubations were done in triplicate. Nonspecific binding was determined in tubes containing (+)butaclamol. Specific binding was calculated by subtracting the nonspecific binding from the total binding. IC50 values, the concentrations of the tested compounds that cause 50% inhibition of the specific ^3 H-SP binding, were assessed using from six to eight samples at different concentrations, in triplicate.

T1 sequence (P61169 whole entry): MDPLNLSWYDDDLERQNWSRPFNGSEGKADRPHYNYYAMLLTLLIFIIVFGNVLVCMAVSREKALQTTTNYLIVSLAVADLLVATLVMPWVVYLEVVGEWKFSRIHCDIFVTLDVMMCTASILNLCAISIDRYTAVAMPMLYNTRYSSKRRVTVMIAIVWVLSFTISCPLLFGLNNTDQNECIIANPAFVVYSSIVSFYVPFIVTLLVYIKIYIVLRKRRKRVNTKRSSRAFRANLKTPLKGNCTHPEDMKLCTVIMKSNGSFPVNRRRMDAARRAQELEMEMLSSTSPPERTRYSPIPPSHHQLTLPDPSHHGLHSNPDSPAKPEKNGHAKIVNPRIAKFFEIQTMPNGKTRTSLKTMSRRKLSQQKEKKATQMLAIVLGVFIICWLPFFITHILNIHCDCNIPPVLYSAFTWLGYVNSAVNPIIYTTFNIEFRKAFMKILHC

In the case of `O=C(CCCN1CCC2(CC1)C(=O)NCN2c1ccccc1)c1ccc(F)cc1I` [2-ISP, 2-iodospiroperidol], the affinity, expressed as Ki, was 1 nM; the IC50 (commonly the concentration that inhibits the measured activity by half) came to 11 nM; the “Relative Potency” value came out at 100.
On the same counts, the results for `CN1CN(c2ccccc2)C2(CCN(CCCC(=O)c3ccc(F)cc3I)CC2)C1=O` [MISP, methyl 2-iodospiroperidol] are 5 nM, 55 nM and 20.
In the same order, the values of `CCCN1CN(c2ccccc2)C2(CCN(CCCC(=O)c3ccc(F)cc3I)CC2)C1=O` [PISP, 8-[4-(4-fluoro-2-iodophenyl)-4-oxobutyl]-3-propyl-1-phenyl-1,3,8-triazaspiro[4.5]decan-4-one] are 0.2 nM, 2.5 nM and 500.
